The values that follow come from ChEMBL document CHEMBL1201862, “PubChem BioAssay data set” (2004).

Test [1] can be described thus: OVCAR8 cell viability loss – plate reader, dry powder samples, PAX8 project, dose response (AID 743197). The settings on record: OVCAR-8. Format: functional, cell-based.
The next test concerns the target Paired box protein Pax-8 (Homo sapiens, UniProt Q06710). Kind of test: PAX8 transcriptional activity inhibition in RMG-I – RMG-I cells, luciferase, cherry-pick, dose response (AID 687027).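 Note: luciferase reporter driven by Pax8 target thyroperoxidase promoter measured by SteadyGlo luminescence.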 Format: functional, cell-based.
Test [2] is described as follows: OVCAR-3 cell viability loss – plate reader, dry powder samples, PAX8 inhibitor project, dose response (AID 743044). Format: functional, cell-based.
A short description of test [3]: growth inhibition of PfATP4-mutant resistant parasites – NITD609-resistant line, SYBR Green, dry powder, dose response (AID 1159571).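 Note: parasites synchronized at ring stage by sorbitol before testing.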 Format: functional, cell-based.
Test [4] in a line: Dd2 parasite growth inhibition in erythrocytes – SYBR Green, dry powder samples, set 9, dose response (AID 1159568). Format: functional, cell-based.
A short description of test [5]: growth inhibition of yeast DHODH-expressing 3D7 parasites – SYBR Green, dry powder samples, dose response (AID 1159570).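 Note: parasite growth measured after 72 hours of compound exposure.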 Format: functional, cell-based.
The nature of test [6]: P. falciparum Dd2 growth inhibitors, dose response, SYBR Green, cherry-picked samples (AID 1159567). It counts as functional, cell-based.
A short description of test [7]: Dd2 malaria parasite growth inhibition potency – SYBR Green, dry powder samples, dose response (AID 1159566).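 Note: potency for growth inhibition with lower SYBR green DNA signal.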 Format: functional, cell-based.
In test [8] the target is T1, Oxysterols receptor LXR-beta (Homo sapiens, UniProt P55055).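 Note: Cell-based luminescence dose-response assay of agonist activity at LXR, run as a confirmatory counterscreen to a daf-12 agonist screen; HEK293 cells with Gal4-LXR fusion and GAL4-driven luciferase reporter; agonist potency from rising luciferase signal of a Gal4-LXR reporter.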
T1 sequence (P55055 whole entry): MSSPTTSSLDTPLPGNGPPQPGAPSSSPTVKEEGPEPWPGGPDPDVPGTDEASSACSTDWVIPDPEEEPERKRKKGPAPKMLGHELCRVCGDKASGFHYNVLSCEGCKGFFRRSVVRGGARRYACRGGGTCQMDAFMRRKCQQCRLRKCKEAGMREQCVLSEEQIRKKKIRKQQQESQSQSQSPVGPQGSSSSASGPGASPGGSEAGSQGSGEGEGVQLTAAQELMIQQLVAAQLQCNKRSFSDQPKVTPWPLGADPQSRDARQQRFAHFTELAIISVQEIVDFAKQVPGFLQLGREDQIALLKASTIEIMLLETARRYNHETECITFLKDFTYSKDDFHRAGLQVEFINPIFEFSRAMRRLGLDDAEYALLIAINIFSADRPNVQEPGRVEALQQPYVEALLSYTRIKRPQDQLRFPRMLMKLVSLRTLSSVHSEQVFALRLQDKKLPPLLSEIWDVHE
Format: functional, cell-based.

The nature of test [9]: toxicity toward HepG2 liver cells – cell-based, plate reader, cherry-pick, antagonist series, cytotoxicity control, dose response (AID 743416). It counts as functional.
The nature of test [10]: A549 cell cytotoxicity, dose response, cytotoxicity control, plate reader, cherry-pick, antagonist series (AID 743412). It counts as functional, cell-based.
Test [11] can be described thus: blockers of bursicon-stimulated LGR2 cAMP reporter – cell-based, HEK293, CRE-luciferase reporter, cherry pick, set 2, dose response (AID 743343).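 Note: transfected cells were stimulated with diluted bursicon conditioned medium after compound addition.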 Format: functional.
Test [12] can be described thus: blockade of melanocortin 4 receptor signaling – cell-based, plate reader, cherry pick, counter-screen for LGR2 antagonist project, dose response (AID 743444).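 Note: transfected HEK 293 cells stimulated with alpha-MSH peptide; potency of inhibitors of the alpha-MSH evoked signal.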 It counts as functional. (In general: Counterscreens check selectivity or assay interference.)
Test [13] in a line: viability loss in HEK293 cells – cell-based, plate reader, cherry-picked samples, cytotoxicity control, dose response (AID 743446). Format: functional.

The source made the active and inactive calls.

Sequence of Paired box protein Pax-8 (Q06710 whole entry): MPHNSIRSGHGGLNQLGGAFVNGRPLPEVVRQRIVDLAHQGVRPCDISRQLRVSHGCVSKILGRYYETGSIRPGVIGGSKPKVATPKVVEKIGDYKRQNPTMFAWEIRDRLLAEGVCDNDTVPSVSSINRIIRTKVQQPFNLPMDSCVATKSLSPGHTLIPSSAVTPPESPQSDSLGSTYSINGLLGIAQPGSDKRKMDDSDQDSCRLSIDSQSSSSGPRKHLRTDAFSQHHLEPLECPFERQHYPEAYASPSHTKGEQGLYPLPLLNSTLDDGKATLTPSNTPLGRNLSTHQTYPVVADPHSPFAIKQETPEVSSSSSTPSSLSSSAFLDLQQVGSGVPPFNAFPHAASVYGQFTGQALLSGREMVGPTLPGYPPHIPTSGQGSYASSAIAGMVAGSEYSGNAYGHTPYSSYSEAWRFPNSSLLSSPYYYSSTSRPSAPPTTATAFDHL

One may read the AC50 as the midpoint of the concentration-response curve, whichever way the signal moves. On to `C[C@@H]1CN([C@H](C)CO)C(=O)c2cc(NC(=O)Nc3ccc(F)cc3)ccc2O[C@@H](C)CCCCO[C@H]1CN(C)C(=O)Nc1ccc(C(F)(F)F)cc1`, for which the AC50 was 39.3 µM (active) in [1], 5.23 µM (active) on Paired box protein Pax-8 and 35 µM (active) in test [2].

With `COc1ccc(C#Cc2ccc3c(c2)O[C@@H](CN(C)C(=O)Nc2cccc(OC)c2)[C@@H](C)CN([C@H](C)CO)S3(=O)=O)cc1`, the AC50 in [3] is 0.494 µM (active); in test [4], 0.466 µM (active); in test [5] it was 0.473 µM (active); in test [6] it was 1.07 µM (active); in test [7] it was 0.49 µM (active).

One may read the EC50 as the midpoint of the concentration-response curve. In the case of `O=C1C(/C=N/Cc2ccco2)=C(O)c2ccccc21`, the EC50 (in test [8]; in “cells”) was > 67.5 µM (inactive) throughout.

In the case of `NC(=O)c1ccsc1NC(=O)c1ccc2c(c1)CCCC2`, the half-maximal activity concentration (AC50) in [9] was 42.4 µM (active); in test [10], 14.1 µM (active); in test [11] it was 9.99 µM (active); in test [12], 15.2 µM (active); in test [13] it was 31.4 µM (active). The EC50 (in [8]; in the test “cells”) was > 67.5 µM (inactive) each time.
